These results are taken from patent publication US20020169296A1, “Linked, sequence-specific DNA-binding molecules” (priority 2000, published 2002).

Assay [1] deals with Drosophila histone SAR probe (clustered/long AT-tracts). Nature of the assay: DNase I footprinting on SAR probe. The assay is classed as binding. The settings on record: for Kd: apparent dissociation constant, SAR probe, read-out: Kdapp SAR. The method, then: Since satellite I is composed of exclusively A and T bases, it constitutes an ‘ideal’ binding substrate for oligopyrroles. But to obtain SAR-specific compounds, molecules are required that preferably bind its clustered, irregularly spaced AT-tracts. Binding studies were carried out with P9, P7 and P13 on the Drosophila histone SAR probe which contains the following clustered/long AT-tracts (W15N3W17N5W16N13W8NW6 where N is any base, see also FIG. 3D). […] The ratio of these two affinities is used (KappW9/KappSAR) as an empirical measure of SAR specificity. For all compounds tested thus far, this value (referred to as SAR preference factor) was around unity (Table 3).
(§1) Fragments were purified on low-melt agarose gels and then cloned into a modified pSP64 vector, cut by BamHI and BglII. End-labeling was carried out following digestion with HindIII and a fill-in reaction with Klenow DNA polymerase. The labeled plasmid was cut with PvuII and the target fragments purified from low-melting agarose gels. The 657 bp EcoRl/Hinf1 fragment of the Drosophila histone SAR was cloned into the SmaI site of the modified pSP64 plasmid. This SAR probe was end-labeled following digestion with EcoRl, then cut with ClaI and the resulting 347 bp fragment purified from low-melting agarose gels.
(§2) All reactions were performed in a total volume of 40 μl. A polyamide stock solution or buffer (for reference lanes) was added to an assay buffer containing 20 kcpm radiolabeled DNA, affording final concentrations of 10 mM Tris-HCl (pH 7.4), 10 mM KCl, 10 mM MgCl, 5 mM CaCl2, 0.5 mM EDTA, 0.5 mM EGTA, 1 mM DTT and 0.1% digitonine. The solutions were allowed to equilibrate for at least 2 h at room temperature. Footprinting reactions were initiated by the addition of 2 μl of a DNase stock solution (containing −100 pg DNase I in buffer) and allowed to proceed for 2 min at room temperature. The reactions were stopped by addition of 10 μl of a solution containing 1.25 M NaCl, 100 mM EDTA. Next, 5 μl of a 1% SDS solution was added, followed by 2 μl of a solution containing 1 μg poly(dA-dT), 1 μg salmon sperm DNA and 10 μg glycogen and the DNA was ethanol precipitated (20 min at −20° C.). The reactions were resuspended in 4 μl of 80% formamide loading buffer, denatured 10 min at 85° C., cooled on ice and electrophoresed on 8% polyacrylamide denaturing gels (5% cross-link, 8 M urea) at 30 W for 1 h. The gels were dried and exposed o/n at −70° C.

In assay [2] the target is W9 probe (isolated 9 bp AT-tract). The assay is described as follows: DNase I footprinting on W9 probe. Format: binding. The settings on record: for Kd: apparent dissociation constant, read-out: Kdapp W9.
Excerpt: To target AT-tracts, the principal component of satellite I, III and SARs), a pyrrole pentamer was synthesized by facile solid phase chemistry in which five pyrrole (Py) aromatic amino acid rings are linked covalently by amide bonds (Baird and Dervan, 1996). The resulting compound, termed P7 had the sequence Py-Py-Py-Py-Py-β-Dp (where β=β-alanine and Dp=dimethylaminopropylamide). This compound is expected to bind 7 successive A or T base pairs (Ws) according to the n+1 rule where n is the number of amides (Youngquist and Dervan, 1985). The DNA binding properties of P7 were assessed by DNAse I footprinting experiments using a synthetic probe containing isolated, repeated AT-tracts of 9 Ws (W9, FIG. 2A). By visual inspection, the apparent dissociation constant (Kapp) for P7 was estimated to be approximately 80 nM (Table 3).
were hybridized to obtain the W9 probe, oligomerized by ligation and digested with BamHl and BglII to obtain different tandem repeats. The following oligonucleotides were prepared identically:
as §1, §2

Assay [3] deals with Drosophila satellite III chromatin (topoisomerase II cleavage). The assay is described as follows: Topoisomerase II cleavage in satellite III of Kc nuclei in Xenopus egg extracts with VM26. Format: biochemical.
For assay [4], the system named is sperm nuclei (condensation to chromatids). The assay is described as follows: Chromosome condensation of sperm nuclei in mitotic Xenopus egg extracts. The assay is classed as biochemical. The settings on record: for reversal of condensation inhibition by competitor oligonucleotide: Lex10 1 μM. The text has this: Mitotic Xenopus egg extracts convert added nuclei and sperm to chromatids in vitro. This chromosome condensation process requires topoisomerase II (Adachi et al., 1991), the protein complex condensin (Hirano T, 1997) and presumably other unidentified activities present in the mitotic extract. First, chromatin is remodeled and nuclei then proceed quite synchronously through a number of morphologically distinguishable steps (Hirano and Mitchison, 1991). Remodeling is morphological manifested by swelling of the nuclei which involves exchange of basic sperm-specific proteins for H2A/H2B and the incorporation of histone B4 (Dimitrov S, 1994).
Pyrrole drugs were added to the extract together with the sperm or after the remodeling step (at 10 minutes) and the extent of condensation was determined after 120 min. At this time point, the conversion of all sperm nuclei to clusters of individual chromatids is complete in the absence of drug (FIG. 8A, control). […] Addition of this compound at 125 to 250 nM (indicated) arrested this process at the so-called early ‘ruffle’ stage (FIG. 8A). These structures retain the swollen sperm shape, but they have peripheral blebs (ruffles) and a slightly heterogeneous interior. At this drug concentration, no chromatids are seen. If the concentration of Lex10 is raised to 500 nM, we observed an even earlier arrest as evidenced by the accumulation of swollen, remodeled sperm-shaped nuclei containing a homogeneous interior and smooth periphery. […] The monomer P7 was also tested but we observed no inhibition with the pyrrole pentamer up to the highest concentration (8 μM) tested. Condensation was inhibited at a ruffle stage with a P9 concentration of 2 μM (not shown).
In the experiment shown in FIG. 8B, Lex10 was added to the extract at a final concentration of 1 μM (several fold above the minimum inhibitory concentration) after which competitor oligonucleotides were added at different stages. Three different oligonucleotides of similar size were used: the SAR oligo contains two large clustered AT-tracts of the SAR probe (W17N5W15), the W9 oligo has a single AT tract of 9 base pairs and the GAGAA oligo harbors 5 tandem GAGAA repeats.
Topoisomerase II inhibition and chromosome assembly were as described previously (Girard et al., 1998, Strick and Laemmli, 1995). Affinity cleavage experiments was performed as described elsewhere (Turner et al., 1997).

Like-named read-outs stand apart in the source and are kept apart here.

Regarding “F*-γ-(Py)5-β-Dp-Glu-(Ao)3-(Py)5-β-Dp [Lex9F]”, in assay [1], the “Ratio (KappW9/KappSAR, SAR preference factor)” value is reported as 25 and the Kd stood at 0.1 µM. The Kd in assay [2] (W9 probe) was 2.5 µM.
Consider “PyPyPy-β-PyPyPy-β-Dp-E-AoAoAo-PyPyPyPyPy-β-Dp [Lex10]”, for which, in assay [1], the “affinity for SAR lower than that of MATH20” value was “approximately 100” and the Kd was 0.00028 µM. Moreover, in assay [3], the “concentration at which inhibition of topoisomerase II cleavage occurs abruptly” value was “around 600 nM” and the “stimulation of topoisomerase II cleavage in satellite III” value (shortened to “stimulation”) is reported as “does not stimulate”. The “inhibition of topoisomerase II cleavage in satellite III” value in assay [3] (1 μM) is recorded as “inhibits cleavage of topoisomerase II completely”. In assay [4], the “concentration giving even earlier arrest (swollen, remodeled sperm-shaped nuclei)” value came to 500 nM and the “higher concentration than MATH20 for inhibition of condensation” value worked out at 80 fold. Moreover, in assay [4] (360 ng of W9 or GAGAA oligo), the “reversal of condensation inhibition by competitor oligonucleotide” value is given as “did not reverse the block”. Moreover, the “reversal of condensation inhibition by competitor oligonucleotide” value in assay [4] (50 to 100 ng SAR oligo) is given as “completely reversed”. Besides, the Kd in assay [2] (W9 probe) was 0.02 µM.
Take “F*-γ-(Py)3-β-(Py)3-β-Dp-Glu-(Ao)3-(Py)5-β-Dp [Lex10F]”: in assay [1], the “Ratio (KappW9/KappSAR, SAR preference factor)” value was 20 and the Kd amounted to 0.001 µM. Also, the Kd in assay [2] (W9 probe) stood at 0.02 µM. Besides, the “reduction of binding affinity upon fluorescein tagging” value in assay [2] (versus untagged compound) is given as “only a minor reduction in affinity”.
As for F*-γ-(Py)5-β-Dp [Compound P7F], in assay [1], the “Ratio (KappW9/KappSAR, SAR preference factor)” value was determined as 2.5 and the Kd was determined as 1.2 µM. Further, in assay [2] (W9 probe), the Kd is 3 µM.
For the molecule “PyPyPyPyPy-β-Dp-E-AoAoAo-PyPyPyPyPy-β-Dp [Lex9]”, in assay [1], the “Ratio (KappW9/KappSAR, SAR preference factor)” value was 2 and the Kd amounted to 0.00175 µM. In addition, the “SAR specificity factor after tagging with fluorescent label” value in assay [1] (value of the tagged derivative) is on record as 25. Moreover, the “stimulation” value in assay [3] is “much reduced cleavage stimulation”. Further, in assay [4] (250 to 500 nM), the inhibition of condensation entry is listed as “Little inhibition”. In addition, the Kd in assay [2] (W9 probe) was determined as 0.0035 µM.
Consider `CN(C)CCCNC(=O)CCNC(=O)c1cc(NC(=O)c2cc(NC(=O)c3cc(NC(=O)c4cc(NC(=O)c5cccn5C)cn4C)cn3C)cn2C)cn1C` [Compound P7, Py-Py-Py-Py-Py-β-Dp], for which the “Ratio (KappW9/KappSAR, SAR preference factor)” value in assay [1] is 2.3. The Kd is 0.035 µM in assay [1]; 0.08 µM in assay [2] (W9 probe, listed as P10); approximately 0.08 µM in assay [2] (W9 probe). In addition, the “stimulation” value in assay [3] is “massively stimulated”. Besides, in assay [4] (120 min), the “concentration inhibiting chromosome condensation (block at ruffle stage)” value was more than 8 µM.
Consider (Py)3-β-(Py)3-β-Dp-F* [Compound P9F], for which, in assay [1], the “Ratio (KappW9/KappSAR, SAR preference factor)” value was found to be 4; the “increase of SAR specificity upon fluorescein tagging” value is “about 4 fold”; the Kd was determined as 0.001 µM. The Kd in assay [2] (W9 probe) came out at 0.004 µM.
As for `CN(C)CCCNC(=O)CCNC(=O)c1cc(NC(=O)c2cc(NC(=O)c3cc(NC(=O)CCNC(=O)c4cc(NC(=O)c5cc(NC(=O)c6cc(NC(=O)CCNC(=O)c7cc(NC(=O)c8cc(NC(=O)c9cccn9C)cn8C)cn7C)cn6C)cn5C)cn4C)cn3C)cn2C)cn1C` [Compound P13, PyPyPy-β-PyPyPy-β-PyPyPy-β-Dp], in assay [1], the “Ratio (KappW9/KappSAR, SAR preference factor)” value was determined as 0.8 and the Kd was 0.00125 µM. For the same molecule, the “ligand concentration giving nearly complete protection (coating) of the W9 probe” value in assay [2] is not below 62.5 nM. Further, the “GC tolerance / AT-specificity of footprint” value in assay [2] (W9 probe, flanking mixed sequences) is listed as “marked tendency to protect GC base pairs”. In assay [2] (W9 probe), the Kd amounted to 0.001 µM.
For (Py)3-β-(Py)3-(Ao)3-(Py)5-β-Dp [Lex18], the “Ratio (KappW9/KappSAR, SAR preference factor)” value in assay [1] was found to be 100. Also, the Kd turned out to be 0.001 µM in assay [1] and 0.1 µM in assay [2] (W9 probe).
